Patent publication US4740501A (priority 1985, dated 1988)

Assays:
MJY-alpha monolayers = assay type: cell-based
B-16 melanoma cells = experiment: Tumor cell survival after pulse treatment; assay type: cell-based, Mouse; conditions: for Percent Tumor Cell Survival: viability 24 hr later
Description: (§1) MJY-alpha mammary tumor cell layers were initiated at 2×10^5 cells/2 cm^2 well (Nuncion Multidish 4, Vangard International, Neptune, NJ) using cells spontaneously released into the medium from confluent 6-8 day old cell layers. B-16 melanoma cells obtained from 4-day-old cell confluent cultures by trypsinization with STV were plated at 2.2×10^5 cells/cm^2 well. These seeding densities yielded lightly confluent layers (2.3-2.6×10^5 cell/cm^2). following treatment the layers were rinsed twice and reincubated with growth media: media were changed daily until the cultures were terminated.
(§2) Survival of tumor cell layers or suspensions was ascertained using 0.5% trypan blue in 0.1M phosphate-buffered saline, pH 7.25. Cell layers were released from the Multidish-4 wells with 0.5 ml STV, diluted 2 to 10 fold with the vital strain; tumor cells in suspension cultures were directly mixed 1:1 with the trypan blue dye. Tumor cells were enumerated using a haemocytometer; all 10 fields were counted for every sample. Percent viable cells was determined by direct comparison of the numbers of cells excluding trypan blue in treated cultures to those in untreated or diluent-treated parallel cultures. There were no significant differences in the viability of cells treated with diluent when compared to untreated cells.
(§3) To delineate the minimum concentration and duration of the tripeptide compound exposure to induce cytolysis, MJY-alpha and B-16 melanoma cell layers and L-1210 leukemia cell suspensions were exposed to 0.5 to 50 ug of the tripeptide compound per ml of solvent for 0.25 to 4 hours. The tripeptide compound was then removed and the cells washed and reincubated in media growth. Tumor cell viability was determined 24 hrs after pulse tripeptide compound exposure. Cell survival of all three tumor cell lines was reduced by an exposure period of as short as 15 min (Table 4). The degree of cytolysis increased with extension of the treatment periods from 15 min to 4 hrs, although the decreases in cell survival were not proportional to the duration of the exposure. […] Comparison of the data in Tables 2 and 4 reveal that cells exposed to the tripeptide compound for one hour were irreversibly damaged when assayed a day later despite their apparent viability immediately after treatment.
(§4) The reversibility of the cancericidal activity of the tripeptide compounds on L-1210 leukemia, MJY-alpha mammary tumor and B-16 melanoma cells was also monitored in the nonhostile tissue culture environment. Cell suspensions of these tumor models were treated with tripeptide for 15 to 240 min, washed and either inoculated into mice or maintained as suspension (L-1210) or monolayer cultures (MJY-alpha and B-16). Reductions in tumor cells survival were negligible (0-6%) in all three tumor systems at initiation of in vitro cultures following treatment with 50 ug tripeptide/ml for as long as 4 hrs. However, significant decreases in cellular viabilities of L-1210 leukemia (FIG. 9), MJY-alpha mammary tumor (FIG. 10) and B-16 melanoma (FIG. 11) tumor cells were observed 24 hr following tripeptide exposure and for the next 6 days.

[1] = test system: MJY-alpha mammary tumor cells; experiment: Tumor cell survival after pulse treatment; assay type: cell-based, Mouse; conditions: for Percent Tumor Cell Survival: viability 24 hr later
Description: as §1, §2, §3, §4

ALL (N cell leukemia) = experiment: Survival of fresh human leukemic cells, continuous exposure; assay type: cell-based; conditions: for % tumor cell survival: ALL
[2] = test system: MJY-alpha mammary tumor cell layers; experiment: Tumor cell survival (trypan blue), continuous exposure; assay type: cell-based, Mouse; conditions: for Percent Tumor Cell Survival / % tumor cell survival / reduction of tumor cell survival: MJY-alpha; for Percent Tumor Cell Survival: treated 24 hr; for reduction of tumor cell survival: 10 microgram/ml
[3] = 50 ug/ml for as long as 4 hrs (all three tumor systems)

CCOC(=O)[C@H](CCSC)NC(=O)[C@H](Cc1cccc(N(CCCl)CCCl)c1)NC(=O)[C@@H](N)Cc1ccc(F)cc1.Cl [PTT.119, 3-(p-fluorophenyl)-L-alanyl-3-[m-bis(2-chloroethyl)aminophenyl]-L-alanyl-L-methionine ethyl ester hydrochloride]
reduction of viability of tumor cell layers compared to solvent (MJY-alpha monolayers): 15-20%
Percent Tumor Cell Survival (B-16 melanoma cells; 5 ug/ml, pulse 1 hr): 88%
Percent Tumor Cell Survival (B-16 melanoma cells; 5 ug/ml, pulse 2 hr): 66%
Percent Tumor Cell Survival (B-16 melanoma cells; 5 ug/ml, pulse 4 hr): 79%
Percent Tumor Cell Survival (B-16 melanoma cells; 5 ug/ml, pulse .5 hr): 93%
Percent Tumor Cell Survival (B-16 melanoma cells; 10 ug/ml, pulse 1 hr): 68%
Percent Tumor Cell Survival (B-16 melanoma cells; 10 ug/ml, pulse 2 hr): 73%
Percent Tumor Cell Survival (B-16 melanoma cells; 10 ug/ml, pulse 4 hr): 63%
Percent Tumor Cell Survival (B-16 melanoma cells; 10 ug/ml, pulse .5 hr): 75%
Percent Tumor Cell Survival (B-16 melanoma cells; 25 ug/ml, pulse 1 hr): 60%
Percent Tumor Cell Survival (B-16 melanoma cells; 25 ug/ml, pulse 2 hr): 56%
Percent Tumor Cell Survival (B-16 melanoma cells; 25 ug/ml, pulse 4 hr): 52%
Percent Tumor Cell Survival (B-16 melanoma cells; 25 ug/ml, pulse .25 hr): 82%
Percent Tumor Cell Survival (B-16 melanoma cells; 25 ug/ml, pulse .5 hr): 67%
reductions in tumor cell survival at initiation of in vitro cultures (B-16 melanoma cells; [3]): 0-6%
Percent Tumor Cell Survival (B-16 melanoma cells; 50 ug/ml, pulse 1 hr): 48%
Percent Tumor Cell Survival (B-16 melanoma cells; 50 ug/ml, pulse .25 hr): 65%
Percent Tumor Cell Survival (B-16 melanoma cells; 50 ug/ml, pulse .5 hr): 62%
Percent Tumor Cell Survival ([1]; 5 ug/ml, pulse 1 hr): 89%
Percent Tumor Cell Survival ([1]; 5 ug/ml, pulse 2 hr): 77%
Percent Tumor Cell Survival ([1]; 5 ug/ml, pulse 4 hr): 76%
Percent Tumor Cell Survival ([1]; 5 ug/ml, pulse .5 hr): 94%
Percent Tumor Cell Survival ([1]; 10 ug/ml, pulse 1 hr): 70%
Percent Tumor Cell Survival ([1]; 10 ug/ml, pulse 2 hr): 64%
Percent Tumor Cell Survival ([1]; 10 ug/ml, pulse 4 hr): 48%
Percent Tumor Cell Survival ([1]; 10 ug/ml, pulse .25 hr): 68%
Percent Tumor Cell Survival ([1]; 10 ug/ml, pulse .5 hr): 67%
Percent Tumor Cell Survival ([1]; 25 ug/ml, pulse 1 hr): 51%
Percent Tumor Cell Survival ([1]; 25 ug/ml, pulse 2 hr): 46%
Percent Tumor Cell Survival ([1]; 25 ug/ml, pulse 4 hr): 44%
Percent Tumor Cell Survival ([1]; 25 ug/ml, pulse .25 hr): 61%
Percent Tumor Cell Survival ([1]; 25 ug/ml, pulse .5 hr): 37%
reductions in tumor cell survival at initiation of in vitro cultures [1, 3]: 0-6%
Percent Tumor Cell Survival ([1]; 50 ug/ml, pulse 1 hr): 41%
Percent Tumor Cell Survival ([1]; 50 ug/ml, pulse .25 hr): 45%
Percent Tumor Cell Survival ([1]; 50 ug/ml, pulse .5 hr): 32%
reduction of cell survival (ALL (N cell leukemia); ALL lymphoblasts, as low as 1 ug): 75%
% tumor cell survival (ALL (N cell leukemia); 1 ug/ml, 1 hr): 98%
% tumor cell survival (ALL (N cell leukemia); 1 ug/ml, 4 hr): 76%
% tumor cell survival (ALL (N cell leukemia); 1 ug/ml, 24 hr): 25%
% tumor cell survival (ALL (N cell leukemia); 5 ug/ml, 1 hr): 46%
% tumor cell survival (ALL (N cell leukemia); 5 ug/ml, 4 hr): 29%
% tumor cell survival (ALL (N cell leukemia); 5 ug/ml, 24 hr): 7%
% tumor cell survival (ALL (N cell leukemia); 10 ug/ml, 1 hr): 32%
% tumor cell survival (ALL (N cell leukemia); 10 ug/ml, 4 hr): 15%
% tumor cell survival (ALL (N cell leukemia); 10 ug/ml, 24 hr): 0%
% tumor cell survival (ALL (N cell leukemia); 25 ug/ml, 1 hr): 15%
% tumor cell survival (ALL (N cell leukemia); 25 ug/ml, 4 hr): 15%
% tumor cell survival (ALL (N cell leukemia); 25 ug/ml, 24 hr): 0%
% tumor cell survival (ALL (N cell leukemia); 50 ug/ml, 1 hr): 0%
% tumor cell survival (ALL (N cell leukemia); 50 ug/ml, 4 hr): 0%
% tumor cell survival (ALL (N cell leukemia); 50 ug/ml, 24 hr): 0%
Percent Tumor Cell Survival ([2]; 1 ug/ml): 54%
% tumor cell survival ([2]; 5 ug/ml, 1 hr): 100%
% tumor cell survival ([2]; 5 ug/ml, 4 hr): 100%
% tumor cell survival ([2]; 5 ug/ml, 8 hr): 100%
% tumor cell survival ([2]; 5 ug/ml, 24 hr): 53%
Percent Tumor Cell Survival ([2]; 5 ug/ml): 41%
% tumor cell survival ([2]; 10 ug/ml, 1 hr): 100%
% tumor cell survival ([2]; 10 ug/ml, 4 hr): 100%
% tumor cell survival ([2]; 10 ug/ml, 8 hr): 100%
% tumor cell survival ([2]; 10 ug/ml, 24 hr): 53%
Percent Tumor Cell Survival ([2]; 10 ug/ml): 36%
% tumor cell survival ([2]; 25 ug/ml, 1 hr): 100%
% tumor cell survival ([2]; 25 ug/ml, 4 hr): 100%
% tumor cell survival ([2]; 25 ug/ml, 8 hr): 98%
% tumor cell survival ([2]; 25 ug/ml, 24 hr): 25%
Percent Tumor Cell Survival ([2]; 25 ug/ml): 27%
% tumor cell survival ([2]; 50 ug/ml, 1 hr): 98%
% tumor cell survival ([2]; 50 ug/ml, 4 hr): 87%
% tumor cell survival ([2]; 50 ug/ml, 8 hr): 62%
% tumor cell survival ([2]; 50 ug/ml, 24 hr): 19%
Percent Tumor Cell Survival ([2]; 50 ug/ml): 20%
reduction of tumor cell survival ([2]; another 24 hours): 25%
reduction of tumor cell survival ([2]; zero to 24 hours): 8%
decrease in mammary tumor cell survival ([2]; continuous 24 hr exposure, all concentrations tested (0.1 to 50 ug/ml)): 46-80%
